Data: article PMC10830420, “Structures, functions and adaptations of the human LINE-1 ORF2 protein” (Nature, 2023)
Entries after “also recorded” stand apart in the source; their conditions may differ.

System: cytosolic RNA:DNA hybrids in L1-transfected HeLa and U2-OS cells
Test: LINE-1 and RNA:DNA hybrid immunofluorescence
Type: cell-based, human
Settings: 50 µM, added at the time of transfection, 24 h
Protocol: Constructs all include C-terminal 3C-3xFlag tag on ORF2p and are synthetic ORFeus-Hs[63] sequence except where L1RP is indicated (L1 retinitis pigmentosa locus, AF148856, pLD564[17]). Cells were fixed in methanol and stained 24 h post transfection with the indicated constructs. Images are representative from 4 independent experiments. D4T RTI treatment is 50 µM, added at the time of transfection.
Culture Collection ( AT CC); THP1-Dual and THP1- Dual KO-TREX1 cells were from InvivoGen. All cell lines were maintained at 37 °C and 5% CO2 and validated and tested for mycoplasma. All plasmids and affinity reagents are described in Supplementary Tables 4-5 , respectively and available from Addgene at https://www.addgene.org/browse/article/28243724/.
LINE-1 and RNA:DNA hybrid immunofluorescence […]
induced using 200 µM IPTG overnight at 16°C, purified by sequential Ni-NTA affinity, heparin affinity, and gel filtration, and the monodisperse fraction was concentrated to 7 mg/ml. 150,000 HeLa or U2OS cells were plated on 22 mm glass coverslips in 6-well dishes and transfected with 2 µg of plasmid DNA using Lipofectamine 3000 (Thermo) according to the manufacturer’s instructions, with or without 50 µM d4T. […]
Cells were lysed in ice cold RIPA buffer containing 1x protease inhibitor tablet (Thermo), centrifuged for 10 minutes, and clarified lysates were quantified by BCA assay. […]

Cc1cn([C@H]2C=C[C@@H](CO)O2)c(=O)[nH]c1=O [d4T, stavudine]
formation of cytosolic RNA:DNA hybrids: ablated; also recorded: inhibited
